# Reference: patent US20200323838A1, “LENALIDOMIDE IMMEDIATE RELEASE FORMULATIONS” (Synbias Pharma AG, priority 2017, published 2020)
# Read-outs that look alike come from different tables or passages of the source.
# Legend:
# [1] = HCl buffer pH 1.8, containing 1% sodium lauryl sulfate; cited from earlier work
# [2] = Dissolution of hard gelatin capsules (Xtend Sotax dissolutor, HPLC detection); format: physicochemical
# Excerpt: (§1) Micronized lenalidomide form A (d(0.5)=10 μm) was mixed with microcrystalline cellulose in a ratio 1:10, filled manually in Size 2 HGC and analyzed for dissolution. Dissolution experiments were run in Xtend Sotax dissolutor, in phosphate buffer pH 6.5 and 0.01 HCl pH 1.8. Sampling time intervals were 10, 15, 20, min. In house developed isocratic HPLC analytical method was used for detection of lenalidomide in dissolution media.
# as §1, with “Non-micronized” for “Micronized”, “(d(0.5)=30” for “(d(0.5)=10”
# 20 mg of non-micronized lenalidomide form A were mixed with 20 mg microcrystalline cellulose, 60 mg lactose monohydrate and, filled manually in size 2 HGC and analyzed for dissolution as in Example 1.
# Formulation prepared according to Example 6 was used for comparative dissolution with Revlimid HGCs in 50 mM phosphate buffer pH 6.8. The results in Table 8 show there was no difference between dissolution profile of Revlimid and tested HGC. […]
# [3] = cited from earlier work
# [4] = high solubility, low permeability; cited from earlier work
# [5] = 0.1 HCl buffer (highest solubility); cited from earlier work
lenalidomide API dissolved in 10 min [2] [%],SMILES,solubility [1] [mg/mL],"time to reach maximum serum concentration (Tmax) ([3]; healthy volunteers, oral) [min]","time to reach maximum serum concentration (Tmax) ([3]; patients with acute myeloid leukemia, oral administration, 25 mg) [min]",BCS class [4],solubility [5] [mg/mL]
–,Nc1cccc2c1CN(C1CCC(=O)NC1=O)C2=O (stereo not drawn) [Polymorph B],5.8,–,–,–,–
≥ 80,"Nc1cccc2c1CN(C1CCC(=O)NC1=O)C2=O (stereo not drawn) [Lenalidomide, 3-(4-amino-1,3-dihydro-1-oxo-2H-isoindol-2-yl)-2,6-piperidine dione]",–,46.2 to 60,71.4,class III,18.0
